pKi: −log10 of the molar value.
Legend:
Carbonic anhydrase 1 = Carbonic anhydrase 1 (Homo sapiens, UniProt P00915); assay: Inhibition of human recombinant CA-1 after 15 mins by stopped-flow CO2 hydrase assay
Carbonic anhydrase 2 = Carbonic anhydrase 2 (Homo sapiens, UniProt P00918); assay: Inhibition of human recombinant CA-2 after 15 mins by stopped-flow CO2 hydrase assay
Carbonic anhydrase 7 = Carbonic anhydrase 7 (Homo sapiens, UniProt P43166); assay: Inhibition of human recombinant CA-7 after 15 mins by stopped-flow CO2 hydrase assay
Carbonic anhydrase 9 = Carbonic anhydrase 9 (Homo sapiens, UniProt Q16790)
Description: Inhibition of human recombinant CA-9 after 15 mins by stopped-flow CO2 hydrase assay

Carbonic anhydrase 12 = Carbonic anhydrase 12 (Homo sapiens, UniProt O43570)
Description: Inhibition of human recombinant CA-12 after 15 mins by stopped-flow CO2 hydrase assay

Mus musculus [1] = assay: Inhibition of oxaliplatin-induced neuropathic pain in po dosed CD-1 mouse model assessed as latency to pain-related behavior after 15 to 45 mins by cold plate test; assay type: functional
Mus musculus [2] = assay: Inhibition of oxaliplatin-induced neuropathic pain in po dosed CD-1 mouse model assessed as latency to pain-related behavior after 15 to 45 mins by cold plate test relative to acetazolamide; assay type: functional

Chain of Carbonic anhydrase 7 (P43166 whole entry): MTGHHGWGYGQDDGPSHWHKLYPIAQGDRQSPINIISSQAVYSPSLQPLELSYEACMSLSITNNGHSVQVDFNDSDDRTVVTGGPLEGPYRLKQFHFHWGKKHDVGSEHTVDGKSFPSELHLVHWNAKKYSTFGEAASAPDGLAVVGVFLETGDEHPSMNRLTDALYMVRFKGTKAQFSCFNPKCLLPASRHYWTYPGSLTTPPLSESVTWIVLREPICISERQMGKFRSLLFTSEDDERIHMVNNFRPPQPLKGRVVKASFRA
Chain of Carbonic anhydrase 1 (P00915 whole entry): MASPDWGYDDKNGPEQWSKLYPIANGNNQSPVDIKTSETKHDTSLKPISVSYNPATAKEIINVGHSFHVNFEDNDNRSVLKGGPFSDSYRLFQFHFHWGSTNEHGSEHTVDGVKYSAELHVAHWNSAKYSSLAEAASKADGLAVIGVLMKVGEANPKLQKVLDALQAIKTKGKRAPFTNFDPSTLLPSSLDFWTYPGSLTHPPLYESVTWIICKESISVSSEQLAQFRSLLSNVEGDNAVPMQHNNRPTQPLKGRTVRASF
Chain of Carbonic anhydrase 12 (O43570 whole entry): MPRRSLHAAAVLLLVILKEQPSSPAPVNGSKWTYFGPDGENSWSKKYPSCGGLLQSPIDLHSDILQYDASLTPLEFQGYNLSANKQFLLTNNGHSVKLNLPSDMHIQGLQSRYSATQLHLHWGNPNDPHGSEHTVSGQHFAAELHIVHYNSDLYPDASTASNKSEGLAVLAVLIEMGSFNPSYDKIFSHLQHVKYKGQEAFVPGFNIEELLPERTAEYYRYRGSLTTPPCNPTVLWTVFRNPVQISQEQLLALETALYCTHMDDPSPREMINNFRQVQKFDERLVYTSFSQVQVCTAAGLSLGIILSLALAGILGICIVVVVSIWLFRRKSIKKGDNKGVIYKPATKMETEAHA

## NS(=O)(=O)c1ccc(OCC#Cc2ccccc2)cc1
Carbonic anhydrase 1
  pKi: 5.46
Carbonic anhydrase 2
  pKi: 7.38
Carbonic anhydrase 7
  pKi: 7.01
Carbonic anhydrase 9
  pKi: 7.67
Carbonic anhydrase 12
  pKi: 7.47

## NS(=O)(=O)c1ccc(OCc2ccc(F)cc2)cc1
Carbonic anhydrase 1
  pKi: 6.50
Carbonic anhydrase 2
  pKi: 7.62
Carbonic anhydrase 7
  pKi: 8.01
Carbonic anhydrase 12
  pKi: 8.10

## CC(=O)Nc1nnc(S(N)(=O)=O)s1 [ACETAZOLAMIDE]
Mus musculus [1]; CD-1, po, read-out: MED
  minimal effective dose: 30 mg/kg

## C=CCOc1ccc(S(N)(=O)=O)cc1
Carbonic anhydrase 7
  pKi: 8.00
Carbonic anhydrase 9
  pKi: 7.87
Carbonic anhydrase 12
  pKi: 8.17

## NS(=O)(=O)c1nc2ccc(OCC#Cc3ccccc3)cc2s1
Carbonic anhydrase 1
  pKi: 5.62
Carbonic anhydrase 2
  pKi: 7.28
Carbonic anhydrase 7
  pKi: 7.13
Carbonic anhydrase 9
  pKi: 7.99
Carbonic anhydrase 12
  pKi: 8.21

## NS(=O)(=O)c1ccc(OCC(c2ccccc2)c2ccccc2)cc1
Carbonic anhydrase 1
  pKi: 5.25
Carbonic anhydrase 2
  pKi: 7.66
Carbonic anhydrase 7
  pKi: 7.15
Carbonic anhydrase 9
  pKi: 7.47
Carbonic anhydrase 12
  pKi: 7.30

## CCOc1ccc(S(N)(=O)=O)cc1
Carbonic anhydrase 1
  pKi: 6.61
Carbonic anhydrase 2
  pKi: 7.64
Carbonic anhydrase 7
  pKi: 8.02
Carbonic anhydrase 9
  pKi: 8.09
Carbonic anhydrase 12
  pKi: 7.87
Mus musculus [1]
  inhibition: Dose-dependent effect
Mus musculus [2]
  Ratio: 3

## CCCOc1ccc(S(N)(=O)=O)cc1
Carbonic anhydrase 1
  pKi: 6.11
Carbonic anhydrase 2
  pKi: 7.89
Carbonic anhydrase 7
  pKi: 8.00
Carbonic anhydrase 9
  pKi: 7.88
Carbonic anhydrase 12
  pKi: 8.10

## CCCCOc1ccc(S(N)(=O)=O)cc1
Carbonic anhydrase 1
  pKi: 6.10
Carbonic anhydrase 2
  pKi: 8.14
Carbonic anhydrase 7
  pKi: 8.01
Carbonic anhydrase 9
  pKi: 8.00
Carbonic anhydrase 12
  pKi: 8.07

## NS(=O)(=O)c1ccc(OCCc2ccccc2)cc1
Carbonic anhydrase 1
  pKi: 6.68
Carbonic anhydrase 2
  pKi: 8.11
Carbonic anhydrase 7
  pKi: 8.03
Carbonic anhydrase 9
  pKi: 8.62
Carbonic anhydrase 12
  pKi: 8.92

## NS(=O)(=O)c1nc2ccc(OCc3ccccc3)cc2s1
Carbonic anhydrase 1
  pKi: 7.32
Carbonic anhydrase 2
  pKi: 8.12
Carbonic anhydrase 7
  pKi: 8.11
Carbonic anhydrase 12
  pKi: 8.60

## C#CCN(CC#C)c1ccc(S(N)(=O)=O)cc1
Carbonic anhydrase 1
  pKi: 5.19
Carbonic anhydrase 2
  pKi: 5.75
Carbonic anhydrase 7
  pKi: 8.07
Carbonic anhydrase 9
  pKi: 8.05
Carbonic anhydrase 12
  pKi: 8.31

## NS(=O)(=O)c1ccc2c(c1)CCN2C(=O)C(F)(F)F
Carbonic anhydrase 1
  pKi: 7.46
Carbonic anhydrase 2
  pKi: 8.04
Carbonic anhydrase 7
  pKi: 8.08
Carbonic anhydrase 9
  pKi: 8.16
Carbonic anhydrase 12
  pKi: 8.39

## C#CCOc1ccc(S(N)(=O)=O)cc1
Carbonic anhydrase 1
  pKi: 5.63
Carbonic anhydrase 2
  pKi: 7.54
Carbonic anhydrase 7
  pKi: 8.02
Carbonic anhydrase 12
  pKi: 8.64

## NS(=O)(=O)c1ccc(OCc2c(F)c(F)c(F)c(F)c2F)cc1
Carbonic anhydrase 1
  pKi: 6.64
Carbonic anhydrase 2
  pKi: 7.59
Carbonic anhydrase 7
  pKi: 8.05
Carbonic anhydrase 9
  pKi: 9.07
Carbonic anhydrase 12
  pKi: 9.12

## NS(=O)(=O)c1ccc(OCCN2CCOCC2)cc1
Carbonic anhydrase 1
  pKi: 6.34
Carbonic anhydrase 2
  pKi: 7.50
Carbonic anhydrase 7
  pKi: 7.06
Carbonic anhydrase 12
  pKi: 7.97

## NS(=O)(=O)c1ccc(OCc2ccc(Br)cc2)cc1
Carbonic anhydrase 1
  pKi: 6.61
Carbonic anhydrase 2
  pKi: 7.56
Carbonic anhydrase 7
  pKi: 8.05
Carbonic anhydrase 9
  pKi: 8.46
Carbonic anhydrase 12
  pKi: 8.19

## NS(=O)(=O)c1ccc(OCc2ccccc2)cc1
Carbonic anhydrase 1
  pKi: 6.12
Carbonic anhydrase 2
  pKi: 7.69
Carbonic anhydrase 7
  pKi: 8.08
Carbonic anhydrase 9
  pKi: 7.75
Carbonic anhydrase 12
  pKi: 7.98

## NS(=O)(=O)c1ccc(OCc2ccc([N+](=O)[O-])cc2)cc1
Carbonic anhydrase 1
  pKi: 6.84
Carbonic anhydrase 2
  pKi: 8.85
Carbonic anhydrase 7
  pKi: 9.05
Carbonic anhydrase 9
  pKi: 8.89
Carbonic anhydrase 12
  pKi: 9.14
